Tested on: adult schizophrenia patients with a persistent inadequate response to their existing antipsychotic therapy
Assay: 6-week study of pimavanserin or placebo added to existing antipsychotic treatment: efficacy rating scales
Format: in vivo, human
Set-up: key to Marder Disorg, LSM Change from Baseline at W6 / Marder Uncntl, LSM Change from Baseline at W6 / Marder AnxDep, LSM Change from Baseline at W6: PANSS factor score points; PANSS items rated on a 7-point scale; CGI-I, LSM at W6 (column head: Change from Baseline at W6) / DAI-10, LSM Change from Baseline at W6 / KSS, LSM Change from Baseline at W6 / CDSS, LSM Change from Baseline at W6 / SF36 MH, LSM Change from Baseline at W6: scale not given here
Procedure: The effect of pimavanserin as an adjunctive treatment in adult schizophrenia patients with a persistent inadequate response (i.e., partial responders) to their existing antipsychotic therapy was tested. 396 patients with moderate-to-severe psychotic symptoms were randomized to receive either pimavanserin or placebo added to existing antipsychotic treatment. […] Dosages of background oral antipsychotics could not be changed within four weeks of screening and dosages of long-acting injectables (LAI) could not be changed within 16 weeks of screening. […] Patients were administered a daily dose of pimavanserin or a placebo for six weeks. The dose started at 20 mg and could be adjusted to 34 mg or 10 mg between weeks 1 and 3. The majority of patients (56%) completed the study at the highest dose level. Patients were evaluated at baseline and on a weekly basis according to the clinical rating scale Positive and Negative Symptom Scale (PANSS). The PANSS is a 30-item, 7-point rating system that was developed to cover a range of negative symptoms not adequately measured by the Brief Psychiatric Rating Scale. It has sections that specifically measure positive symptoms, negative symptoms, and general psychopathology in schizophrenic subjects. The PANSS is widely used in trials of antipsychotic drug treatment, and has been formally validated for such use. A subset of 5 of the PANSS factors, the […] factors, were also evaluated. Other clinical rating scales that were assessed were the Clinical Global Impression Scale (CGI), Personal and Social Performance Scale (PSP), drug attitude inventory (DAI-10), Karolinska Sleepiness Scale (KSS), Calgary Depression Scale for Schizophrenia (CDSS), 36-item Short Form Physical Health evaluation ([…]) and 36-item Short Form Mental Health evaluation […].

[1] = European sites subgroup, Week 6
[2] = European sites subgroup, Week 6, listed as pimavanserin
[3] = FAS population, W6, Missing as Worsen

CC(C)COc1ccc(CNC(=O)N(Cc2ccc(F)cc2)C2CCN(C)CC2)cc1 [Pimavanserin, N-(4-Fluorophenylmethyl)-N-(1-methylpiperidin-4-yl)-N′-(4-(2-methylpropyloxy)phenylmethyl)carbamide]
PANSS Negative Symptoms Subscale, LS Mean Change at Week 6 (Europe subgroup): −2.9
PANSS Positive Symptoms Subscale, LS Mean Change at Week 6 (Europe subgroup): −5.5
PANSS Negative Symptoms Subscale, Cohen's d Effect Size (Europe subgroup, Week 6): 0.296
PANSS Negative Symptoms Subscale, LS Mean (SE) Difference (Europe subgroup, Week 6): −1.1
PANSS Positive Symptoms Subscale, Cohen's d Effect Size (Europe subgroup, Week 6): 0.195
PANSS Positive Symptoms Subscale, LS Mean (SE) Difference (Europe subgroup, Week 6): −0.8 (0.49)
CGI-S score, Change from Baseline to Week 6, Mean (SE) (European sites subgroup): −0.8 (0.07)
CGI-S score, Week 6, Mean (SE) (European sites subgroup): 3.8 (0.08)
PANSS total score, Change from Baseline to Week 6, Mean (SE) (European sites subgroup): −16.0 (1.06)
PANSS total score, Week 6, Mean (SE) (European sites subgroup): 73.2 (1.18)
CGI-S score, Diff in MMRM LSM (SE), pimavanserin − placebo [1]: −0.2 (0.09)
CGI-S score, Effect Size (Cohen's d) [1]: 0.266
PANSS total score, Diff in MMRM LSM (SE), pimavanserin − placebo [1]: −3.1 (1.37)
PANSS total score, Effect Size (Cohen's d) [1]: 0.261
CGI-S score, Diff in MMRM LSM (SE), pimavanserin − placebo [2]: −0.2
PANSS total score, Diff in MMRM LSM (SE), pimavanserin − placebo [2]: −3.1
CDSS, LSM Change from Baseline at W6 (FAS Population, OC, ANCOVA): −0.6
DAI-10, LSM Change from Baseline at W6 (FAS Population, OC, ANCOVA): 0.4
PSP, LSM Change from Baseline at W6 (FAS Population, OC, ANCOVA): 6.9
SF36 MH, LSM Change from Baseline at W6 (FAS Population, OC, ANCOVA): 5.6
SF36 PH, LSM Change from Baseline at W6 (FAS Population, OC, ANCOVA): 0.46
CDSS, Effect Size (FAS Population, OC, ANCOVA, W6): 0.09
CDSS, Treatment group Comparison (PIM-PBO) LSM (FAS Population, OC, ANCOVA, W6): −0.2
DAI-10, Effect Size (FAS Population, OC, ANCOVA, W6): Neg
DAI-10, Treatment group Comparison (PIM-PBO) LSM (FAS Population, OC, ANCOVA, W6): −0.0
PSP, Effect Size (FAS Population, OC, ANCOVA, W6): 0.15
PSP, Treatment group Comparison (PIM-PBO) LSM (FAS Population, OC, ANCOVA, W6): 1.3
SF36 MH, Effect Size (FAS Population, OC, ANCOVA, W6): 0.11
SF36 MH, Treatment group Comparison (PIM-PBO) LSM (FAS Population, OC, ANCOVA, W6): 1.0
SF36 PH, Effect Size (FAS Population, OC, ANCOVA, W6): 0.00
SF36 PH, Treatment group Comparison (PIM-PBO) LSM (FAS Population, OC, ANCOVA, W6): 0.0
CGI-I, LSM at W6 (column head: Change from Baseline at W6) (FAS Population, OC, MMRM): 2.9
KSS, LSM Change from Baseline at W6 (FAS Population, OC, MMRM): −0.5
Marder AnxDep, LSM Change from Baseline at W6 (FAS Population, OC, MMRM): −2.3
Marder Disorg, LSM Change from Baseline at W6 (FAS Population, OC, MMRM): −2.5
Marder Pos, LSM Change from Baseline at W6 (FAS Population, OC, MMRM): −5.5
Marder Uncntl, LSM Change from Baseline at W6 (FAS Population, OC, MMRM): −1.7
PANSS GenPsy, LSM Change from Baseline at W6 (FAS Population, OC, MMRM): −7.2
PANSS Pos, LSM Change from Baseline at W6 (FAS Population, OC, MMRM): −5.4
CGI-I, Effect Size (FAS Population, OC, MMRM, W6): 0.08
CGI-I, Treatment group Comparison (PIM-PBO) LSM (FAS Population, OC, MMRM, W6): −0.1
KSS, Effect Size (FAS Population, OC, MMRM, W6): 0.23
KSS, Treatment group Comparison (PIM-PBO) LSM (FAS Population, OC, MMRM, W6): −0.3
Marder AnxDep, Effect Size (FAS Population, OC, MMRM, W6): 0.02
Marder AnxDep, Treatment group Comparison (PIM-PBO) LSM (FAS Population, OC, MMRM, W6): −0.0
Marder Disorg, Effect Size (FAS Population, OC, MMRM, W6): 0.18
Marder Disorg, Treatment group Comparison (PIM-PBO) LSM (FAS Population, OC, MMRM, W6): −0.5
Marder Pos, Effect Size (FAS Population, OC, MMRM, W6): 0.16
Marder Pos, Treatment group Comparison (PIM-PBO) LSM (FAS Population, OC, MMRM, W6): −0.8
Marder Uncntl, Effect Size (FAS Population, OC, MMRM, W6): 0.01
Marder Uncntl, Treatment group Comparison (PIM-PBO) LSM (FAS Population, OC, MMRM, W6): −0.0
PANSS GenPsy, Effect Size (FAS Population, OC, MMRM, W6): 0.12
PANSS GenPsy, Treatment group Comparison (PIM-PBO) LSM (FAS Population, OC, MMRM, W6): −0.8
PANSS Pos, Effect Size (FAS Population, OC, MMRM, W6): 0.12
PANSS Pos, Treatment group Comparison (PIM-PBO) LSM (FAS Population, OC, MMRM, W6): −0.5
CGI-I no Chg or Worsened, (%) [3]: (34.7) %
CGI-I no Chg or Worsened, Diff in % (PIM − PBO) [3]: 4.1%

Reference: patent US20220288048A1, “PIMAVANSERIN FOR TREATING SCHIZOPHRENIA OR FOR TREATING PSYCHOSIS SECONDARY TO NEURODEGENERATIVE DISORDERS OR DEPRESSIVE DISORDER” (ACADIA Pharmaceuticals Inc., priority 2019, published 2022)
